Data reported in the RepoRT retention time repository (doi:10.1021/acs.analchem.2c02893).

Experiment: RP, Thermo Scientific Acclaim RSLC 120 C18, 100 × 2.1 mm, 2.2 µm, 30 °C, 0.2 mL/min, estimated dead time 1.1 min; A: 90% water + 10% methanol + 0.01% formic acid + 5 mM ammonium formate, pH 3.61; B: methanol + 0.01% formic acid + 5 mM ammonium formate, pH 3.61; gradient (min/%B) 0/1 1/1 2/39 13/99.9 15/99.9 15.1/1 20.1/1
Settings: stereoisomer not certain

Row | SMILES | LC retention time [min]
1 | C=CC(=O)NC(C)(C)CS(=O)(=O)O [2-Acrylamido-2-methylpropane sulfonic acid (AMPS)] | 2.8
2 | CCCCCc1cc(O)c2c(c1)OC(C)(C)C1CCC(CO)=CC21 (configuration not stated) [THC-OH. 11-OH-THC] | 12.5
3 | CC(=O)Nc1ccc(N)cc1 [4`-Aminoacetanilide] | 2.27
4 | COc1cc(CCNCc2ccccc2OC)c(OC)cc1I [25I-NBoMe] | 8.03
5 | Cc1cccc(C)c1NC(=O)CS(=O)(=O)O | 9.34
6 | CCOP(=O)(OCC)Oc1ccc([N+](=O)[O-])cc1 [Paraoxon] | 8.01
7 | CC(C)C(NC(=O)c1cn(CCCCCF)c2ccccc12)C(N)=O (configuration not stated) [ABICA-5F] | 8.93
8 | CCCCCn1c(C)c(C(=O)c2cccc3ccccc23)c2ccccc21 [JWH-007] | 12.6
9 | CCNc1nc(NC(C)C)nc(OC)n1 [Atraton] | 7.81
10 | CN(C)S(=O)(=O)Nc1ccccc1 [DMSA (N N-Dimethylaminosulfanilide)] | 6.28
11 | CC(C)N1C(=O)N(c2ccccc2)CSC1=NC(C)(C)C [Buprofezin  (Z-isomer. Buprofexin)] | 12.2
12 | O=C1NC(=O)C(c2ccccc2)(c2ccccc2)N1 [Phenytoin] | 7.08
13 | CCOP(=O)(Sc1ccccc1)Sc1ccccc1 [Edifenphos] | 10.8
14 | CN(c1nccc(=O)[nH]1)C1CCN(c2nc3ccccc3n2Cc2ccc(F)cc2)CC1 [Mizolastine] | 9.14
15 | CCC(CC)(CNC(=O)CCCO)c1cccc(OC)c1 [Embutramide] | 8.98
16 | COc1ccc(-c2ccccc2)cc1NNC(=O)OC(C)C [Bifenazate] | 9.87
17 | CCNc1nc(Cl)nc(NC(C)CC)n1 (configuration not stated) [Sebuthylazine] | 9.09
18 | CCOC(=O)C1=NN(c2ccc(Cl)cc2Cl)C(C)(C(=O)OCC)C1 (configuration not stated) [Mefenpyr-diethyl] | 11.1
19 | CN(C)CC=C(c1ccc(Br)cc1)c1cccnc1 [Zimelidine] | 6.56
20 | CCOC(=O)C1=C(C)NC(C)=C(C(=O)OC)C1c1cccc(Cl)c1Cl (configuration not stated) [Felodipine] | 11
21 | NS(=O)(=O)c1cc(C2(O)NC(=O)c3ccccc32)ccc1Cl (configuration not stated) [Chlorthalidone] | 5.06
22 | c1ccc(Nc2ccccc2)cc1 [Diphenylamine] | 10.1

Row | SMILES | LC retention time [min]
23 | COc1ncc(F)c2nc(S(=O)(=O)Nc3c(F)cccc3F)nn12 [Florasulam] | 5.75
24 | CCCCOCCOCCOCc1cc2c(cc1CCC)OCO2 [Piperonyl butoxide] | 12.4
25 | CCCCCCCCCCCC(CC1OC(=O)C1CCCCCC)OC(=O)C(CC(C)C)NC=O (configuration not stated) [Orlistat (Na)] | 14.6
26 | CCCc1nn(C)c2c(=O)[nH]c(-c3cc(S(=O)(=O)N4CCN(Cc5ccccc5)CC4)ccc3OCC)nc12 [Sildenafil-Benzyl] | 11.5
27 | CCc1cc(OC)c(CC(C)N)cc1OC (configuration not stated) [DOET] | 6.88
28 | O=C(Oc1cccc2ccccc12)c1nn(CCCCCF)c2ccccc12 [SDB-005-5F] | 12.1
29 | CN(C)S(N)(=O)=O [N,N-Dimethylsulfamide] | 2.02
30 | CCCCN(CCCC)CCCC [Tributylamine] | 5.28
31 | COc1cc(OC)nc(NC(=O)NS(=O)(=O)N(C)S(C)(=O)=O)n1 [Amidosulfuron] | 6.77
32 | CSc1nnc(C(C)(C)C)c(=O)[nH]1 [Metribuzin-Desamino (DA)] | 7.46
33 | COc1ccc2c(c1O)-c1c3c(cc4c1C(C2)N(C)CC4)OCO3 (configuration not stated) [Bulbocapnine] | 4.36
34 | CCN(Cc1ccc(Cl)nc1)C(=C[N+](=O)[O-])NC [Nitenpyram] | 3.9
35 | CS(=O)(=O)c1ccc(C(O)C(CF)NC(=O)C(Cl)Cl)cc1 (configuration not stated) [Florfenicol] | 4.73
36 | CNC(C)Cc1ccc(F)cc1 (configuration not stated) [Amphetamine-4-F-Methyl (4-F-methamphetamine)] | 4.43
37 | Cc1onc(-c2c(Cl)cccc2Cl)c1C(=O)NC1C(=O)N2C1SC(C)(C)C2C(=O)O (configuration not stated) [Dicloxacillin] | 7.8
38 | CCCCCn1cc(C(=O)c2cccc3ccccc23)c2cccc(O)c21 [JWH-018-M-7-OH-Ind] | 11.8
39 | CCCCC1=NC2(CCCC2)C(=O)N1Cc1ccc(-c2ccccc2-c2nn[nH]n2)cc1 [Irbesartan] | 9.44
40 | CN(C)CCCC1(c2ccc(F)cc2)OCc2cc(C(N)=O)ccc21 (configuration not stated) [Citalopram amide] | 5.15
41 | CC(C)[N+]1(C)C2CCC1CC(OC(=O)C(CO)c1ccccc1)C2 (configuration not stated) [Ipratropium] | 4.17
42 | O=[N+]([O-])/N=C1\NCCN1Cc1ccc(Cl)nc1 [Imidacloprid] | 4.76
43 | CCOP(=S)(Oc1ccc(C#N)cc1)c1ccccc1 (configuration not stated) [Cyanofenphos] | 10.9
44 | Cn1sc(Cl)cc1=O [CMI (5-Chloro-2-methyl-4-isothiazolin-3-on)] | 4.51

Row | SMILES | LC retention time [min]
45 | CCN(CC)CCNC(=O)c1cc(S(C)(=O)=O)ccc1OC [Tiapride] | 3.41
46 | C=CCC1(C(C)C#CCC)C(=O)NC(=O)N(C)C1=O (configuration not stated) [Methohexital] | 9.09
47 | CCc1ccc(CCOc2ccc(CC3SC(=O)NC3=O)cc2)nc1 (configuration not stated) [Pioglitazone] | 9.09
48 | C#CC(C)(C)NC(=O)c1cc(Cl)cc(Cl)c1 [Propyzamide (Pronamide)] | 9.69
49 | Cc1cc(C)nc(NC(=O)NS(=O)(=O)c2ccccc2C(=O)OC2COC2)n1 [Oxasulfuron] | 6.52
50 | NC(N)=NC(=O)c1nc(Cl)c(N2CCCCCC2)nc1N [HMA] | 3.23
51 | CC(C)C1(C)N=C(c2ncccc2C(=O)O)NC1=O (configuration not stated) [Imazapyr] | 4.1
52 | CC(CC(=O)Nc1ccc(Cl)cc1Cl)N1CCCCC1 (configuration not stated) [Clibucaine] | 6.27
53 | CN(C)C1CSSSC1 [Thiocyclam] | 3.16
54 | COC(=O)C1Cc2c([nH]c3ccccc23)C(c2ccc3c(c2)OCO3)N1C(=O)CCl (configuration not stated) [Chloropretadalafil] | 9.34
55 | O=C(CCCN1CCC(O)(c2ccc(Cl)cc2)CC1)c1ccc(F)cc1 [Haloperidol] | 7.18
56 | CN1CCN(CC(=O)N2c3ccccc3C(=O)Nc3cccnc32)CC1 [Pirenzepine] | 4.11
57 | CN1C(=O)CN=C(c2ccccc2Cl)c2cc(Cl)ccc21 [Diclazepam] | 9.19
58 | NC1CCc2cc3c(cc2C1)OCO3 (configuration not stated) [MDAT] | 4.32
59 | O=C(CC1NCCCC1O)Cn1cnc2cc(Br)c(Cl)cc2c1=O (configuration not stated) [Halofuginone] | 6.76
60 | CC(=O)Nc1ccc(S(=O)(=O)Nc2nccs2)cc1 [Sulfathiazole-N4-Acetyl] | 4.24
61 | COC(=O)c1ccccc1S(=O)(=O)NC(=O)Nc1nc(C)nc(OC)n1 [Metsulfuron-methyl] | 6.31
62 | CC(C1=C(CCN(C)C)Cc2ccccc21)c1ccccn1 (configuration not stated) [Dimetindene] | 6.86
63 | S=c1[nH]c2ccccc2s1 [Benzothiazole-Mercapto] | 6.89
64 | Cc1ccccc1-n1c(C)nc2ccccc2c1=O [Methaqualone] | 7.83
65 | C=CCNc1nc(NCC=C)nc(N2CCN(C(c3ccc(F)cc3)c3ccc(F)cc3)CC2)n1 [Almitrine] | 13.4
66 | COc1ccc(CCN)cc1OC [DMPEA] | 3.53

Row | SMILES | LC retention time [min]
67 | COc1ccc2[nH]cc(CCN(C)C)c2c1 [MeO-DMT (5-)] | 3.98
68 | CC1Cc2ccccc2N1NC(=O)c1ccc(Cl)c(S(N)(=O)=O)c1 (configuration not stated) [Indapamide] | 6.61
69 | CCCCCn1cc(C(=O)c2ccc(OC)c3ccccc23)c2ccccc21 [JWH-081] | 12.7
70 | CN1CCN2c3ccccc3Cc3ccccc3C2C1 (configuration not stated) [Mianserine] | 6.94
71 | CCNc1nc(NC(C)CC)nc(OC)n1 (configuration not stated) [Secbumeton] | 8.79
72 | CCCN(CCC)c1c([N+](=O)[O-])cc(S(N)(=O)=O)cc1[N+](=O)[O-] [Oryzalin] | 10.3
73 | CNC(=N[N+](=O)[O-])NCC1CCOC1 (configuration not stated) [Dinotefuran] | 3.59
74 | CCC(=O)C1(c2cccc(O)c2)CCN(C)CC1 [Ketobemidone] | 4.26
75 | C#CC(C)OC(=O)Nc1cccc(Cl)c1 (configuration not stated) [Chlorbufam] | 9.27
76 | CNC(=O)Oc1cc(C)cc(C(C)C)c1 [Promecarb] | 9.51
77 | CNCC(C)CN1c2ccccc2CCc2ccccc21 (configuration not stated) [Trimipramine-Nor] | 8.49
78 | CNC(=O)ON=C(C)SC [Methomyl] | 4.16
79 | CC(=O)OCC(=O)C12OC3(CCCC3)OC1CC1C3CCC4=CC(=O)C=CC4(C)C3(F)C(O)CC12C (configuration not stated) [Amcinonide] | 11.2
80 | COC(=O)C(NC(=O)c1nn(CC2CCCCC2)c2ccccc12)C(C)(C)C (configuration not stated) [MDMB-CHMINACA (MDMB-CHMICA)] | 12.9
81 | CNC(=O)C(=NOC)c1ccccc1COc1cc(C)ccc1C [Dimoxystrobin] | 10.7
82 | CCOc1ccc(C(C)(C)COCc2cccc(Oc3ccccc3)c2)cc1 [Etofenprox] | 14.1
83 | O=c1[nH]c2ccccc2n1CCCN1CCN(C(c2ccccc2)c2ccccc2)CC1 [Oxatomide] | 8.42
84 | Cc1cnc2c(C(=O)O)c(Cl)ccc2c1 [Quinmerac] | 4.75
85 | CNC(=O)Nc1nc2ccccc2s1 [Benzthiazuron] | 7.13
86 | CCCNC(C)C(=O)Nc1ccccc1C (configuration not stated) [Prilocaine] | 4.69
87 | CNCC(O)c1ccc(O)c(O)c1 (configuration not stated) [Epinephrine] | 1.38
